Reference: PubChem BioAssay (NCI)
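96-well plates; 48 h exposure; 5 concentrations. Endpoints by linear interpolation between flanking doses. Not reached: highest tested concentration assigned. GI50 = concentration required for 50% inhibition of growth. The concentration for full growth arrest is given as TGI.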

Assays:
Experiment in all cases: NCI anticancer screen, dose series, 48 h
ACHN renal = system: ACHN renal
HL-60(TB) leukemia = system: HL-60(TB) leukemia
HOP-92 NSCLC = system: HOP-92 NSCLC
HT29 colon = system: HT29 colon
SK-MEL-2 melanoma = system: SK-MEL-2 melanoma
SW-620 colon = system: SW-620 colon
UACC-257 melanoma = system: UACC-257 melanoma
A498 renal = system: A498 renal
HOP-62 NSCLC = system: HOP-62 NSCLC
DU-145 prostate = system: DU-145 prostate

| Compound | GI50 (ACHN renal) [µM] | TGI (ACHN renal) [µM] | GI50 (HL-60(TB) leukemia) [µM] | TGI (HL-60(TB) leukemia) [µM] | GI50 (HOP-92 NSCLC) [µM] | TGI (HOP-92 NSCLC) [µM] | GI50 (HT29 colon) [µM] | TGI (HT29 colon) [µM] | GI50 (SK-MEL-2 melanoma) [µM] | TGI (SK-MEL-2 melanoma) [µM] | GI50 (SW-620 colon) [µM] | TGI (SW-620 colon) [µM] | GI50 (UACC-257 melanoma) [µM] | TGI (UACC-257 melanoma) [µM] | TGI (A498 renal) [µM] | TGI (HOP-62 NSCLC) [µM] | GI50 (A498 renal) [µM] | GI50 (HOP-62 NSCLC) [µM] | TGI (DU-145 prostate) [µM] |
| --- | --- | --- | --- | --- | --- | --- | --- | --- | --- | --- | --- | --- | --- | --- | --- | --- | --- | --- | --- |
| CCCCCCCCCCCCC(=O)[O-].CCCCCCCCCCCCC(=O)[O-].CCCCCCCCCCCCC(=O)[O-].CCCCCCCCCCCCC(=O)[O-].[Mo+2].[Mo+2] | 16 | 30.4 | 2.82 | 7.8 | 3.56 | 9.35 | 12.6 | 27.1 | 12.2 | 28 | 15.1 | 29 | 26.5 | 96.1 |  |  |  |  |  |
| O=C(O)c1c[nH]cc1C(=O)O |  |  |  | > 100 |  | > 100 |  | > 100 |  |  |  | > 100 |  | > 100 | > 100 | > 100 |  |  |  |
| COc1cc(Oc2c(O)c(C)c(OC)c(C(C)=O)c2O)c(C(C)=O)c(O)c1C |  | > 100 |  |  |  | > 100 |  | > 100 |  |  |  | > 100 |  | > 100 |  | 83.1 |  |  |  |
| COC(=O)C(=O)C(C(=O)C=C(C)C)C(=O)C(=O)Nc1cccc(C(C)=O)c1 (configuration not stated) |  | > 100 |  | > 100 |  |  |  | > 100 |  | > 100 |  | > 100 |  | > 100 | > 100 | > 100 |  |  |  |
| O=C1C(=O)N(C2C3CC4CC(C3)CC2C4)C(=O)C(=O)C1c1nc2ccccc2o1 (configuration not stated) |  | > 100 |  |  |  | > 100 |  | 49.9 |  | > 100 |  | > 100 |  | > 100 |  | > 100 |  |  |  |
| O=C1CC2C(=O)N(Cc3ccccc3)C1C(S(=O)(=O)c1ccccc1)C2S(=O)(=O)c1ccccc1 (configuration not stated) |  | 3.24 |  | 3.51 |  | 4.24 |  | 5.1 |  |  |  | 1.69 |  | 3.25 | 32.2 | 36.9 |  |  |  |
| CC(=O)NC(CCCN(Cc1ccccc1)C(=O)N(CCCl)N=O)C(=O)NCc1ccccc1 (configuration not stated) |  | > 96.3 |  | 57.1 |  | > 91.8 |  | > 100 |  | > 94.8 |  | > 100 |  | > 100 | > 72 | 46.3 |  |  |  |
| CC1CC2(CC[C@@H]1O)OCCO2 (some centres not stated) |  |  |  | > 100 |  | > 100 |  | > 100 |  | > 100 |  | > 100 |  | > 100 | > 100 | > 100 |  |  |  |
| C/C=C(/CCCCNCCCC)[Si](C)(C)C |  | 26.9 |  |  |  | 20.9 |  | 14.7 |  | 33.1 |  | 34.1 |  | 30.3 | 29.4 |  |  |  |  |
| O=C(Cc1ccccc1)N/N=C(\C1=Nc2ccc([N+](=O)[O-])cc2NC1O)C(O)c1ccc([N+](=O)[O-])cc1 (configuration not stated) |  | > 100 |  | > 100 |  | > 100 |  | > 100 |  | > 100 |  | > 100 |  | > 100 | > 100 | > 100 |  |  |  |
| CCOc1ccc(NC(=O)CC2SC(N)=NC2=O)cc1 (configuration not stated) |  | > 100 |  | > 100 |  | > 100 |  | > 100 |  | > 100 |  | > 100 |  | > 100 |  | > 100 |  |  |  |
| C=C(N=[N+]=[N-])c1cn(C2CC(O)C(CO)O2)c(=O)[nH]c1=O (configuration not stated) |  | > 100 |  | > 100 |  | > 100 |  | > 100 |  | > 100 |  | > 100 |  |  |  | > 100 |  |  |  |
| CCOC(=O)N1C2C=C(C)C(C3C(C)C(=O)N31)N(C(=O)c1ccccc1)O2 (configuration not stated) |  | > 100 |  | > 100 |  | > 100 |  | > 100 |  | > 100 |  | > 100 |  | > 100 | > 100 | > 100 |  |  |  |
| Clc1ccc(CN2COc3c(cc(Cl)c4cccnc34)C2)cc1 |  | 8.74 |  | 2.11 |  | 12.9 |  | 24.7 |  | 3.87 |  | 11 |  | 9.13 | 24.8 | 3.35 |  |  |  |
| Cc1c2ccncc2c(C)c2c1[nH]c1ccc(OC(C)(C)C)cc12 |  |  |  | 3.83 |  | 25.1 |  | 7.09 |  | 3.88 |  | 5.1 |  | 4.01 | 26.2 | 9.74 |  |  |  |
| COC(=O)[C@]1(C)CCC[C@@]2(C)C1CCC1=C[C@@]3(C(C)C)CC[C@]12OO3 (some centres not stated) |  | > 100 |  | 42 |  |  |  | 29.5 |  | > 100 |  | > 100 |  | > 100 | 67 | > 100 |  |  |  |
| C=CCc1ccc(O)c(-c2cc(C3Oc4c(-c5cc(CC=C)ccc5O)cc(O)cc4[C@@H]3CO)ccc2O)c1 (some centres not stated) |  | > 100 |  | 38.5 |  | 64.9 |  | 79.3 |  | 45.9 |  | 31.1 |  | > 100 | 61.5 | 75 |  |  |  |
| CN(C)c1ccc(N=Nc2c([O-])ccc3ccccc23)cc1.[C-]#[O+].[C-]#[O+].[Ir] | 5.43 | 55.2 | 10.6 | > 46.6 | 2.72 | 8.64 | 28.5 | > 73.1 | 23.8 | 48.2 | 1.48 | 25.7 | 5.71 | 36 | > 100 | > 100 | > 100 | > 100 |  |
| CC(C)[C@@H](COC(C)(C)C)N=CN1CCc2c([nH]c3ccccc23)C1 |  | > 100 |  | > 100 |  | 89.6 |  | > 100 |  | > 100 |  | > 100 |  |  | > 100 | > 100 |  |  |  |
| O=C(Nc1cc(Cl)c(Cl)cc1Cl)C(=O)C(C(=O)c1ccc(Cl)c(Cl)c1)C1OC(=O)c2ccccc21 (configuration not stated) |  | 31.7 |  | 52 |  | 31.4 |  | 39.3 |  | 28.6 |  | 38.3 |  | 27.5 | 41.9 | 25.3 |  |  |  |
| Cc1cc(N2CCCC2)nc(N(CCCNc2ccnc3cc(Cl)ccc23)Cc2ccc3c(c2)OCO3)n1 | 1.67 | 5.93 | 0.402 | 1.36 | 0.0237 | 2.96 | 0.541 | 2.83 | 1.84 | 4 | 1.21 | 2.87 | 1.84 | 3.47 | 7.5 | 10.2 | 2.44 | 1.83 |  |
| C[C@H](CSC(=O)c1ccccc1)C(=O)N1c2ccccc2C[C@H]1C(=O)O |  | > 100 |  | > 100 |  |  |  | > 100 |  |  |  | > 100 |  | > 100 | > 100 | > 100 |  |  | > 100 |
